Literature values, collected in patent US11122797B2, “Pest repellent material” (JGC CATALYSTS AND CHEMICALS LTD., priority 2017, dated 2021).

Settings: within 6 hours

CCN(CC)C(=O)c1cccc(C)c1 [DEET, N, N-diethyl-m-toluamide]
DEET applied to the skin transdermally absorbed: about 50%
